The text below walks through data of article PMC3781304 (American Journal of Cardiovascular Drugs, 2013).

Entries after “also recorded” stand apart in the source; their conditions may differ.

Data set [1] is described as follows: Digoxin study: safety, treatment-emergent adverse events. Particulars: for Fecal occult bleeding (TEAE): printed under most frequent and under bleeding-related TEAEs.
The nature of data set [2]: Digoxin drug-drug interaction study: edoxaban pharmacokinetics.
For data set [3] the following is noted: cited from earlier work.
Data set [4] in a line: Amiodarone study: safety, treatment-emergent adverse events. The class given is in vivo, healthy volunteers (human).
Data set [5] can be described thus: Tolerability across the 6 studies. It is filed as in vivo, healthy subjects (human). Particulars: edoxaban alone or coadministered with the 6 cardiovascular drugs.
A short description of data set [6]: Atorvastatin study: safety, treatment-emergent adverse events.
A short description of data set [7]: Quinidine drug-drug interaction study: edoxaban pharmacokinetics.
Data set [8] in a line: Verapamil drug-drug interaction study: edoxaban pharmacokinetics. Particulars: human, in vivo, 60 mg.
Data set [9] can be described thus: Dronedarone study: safety, treatment-emergent adverse events.
The nature of data set [10]: Verapamil study: safety, treatment-emergent adverse events.
Data set [11] can be described thus: Edoxaban administered alone, pharmacokinetics across the 6 studies.
Data set [12] is described as follows: Dronedarone drug-drug interaction study: edoxaban pharmacokinetics.
Data set [13] can be described thus: Atorvastatin drug-drug interaction study: edoxaban pharmacokinetics. Particulars: human, in vivo, 60 mg.
A short description of data set [14]: Quinidine study: safety, treatment-emergent adverse events.
A short description of data set [15]: Amiodarone drug-drug interaction study: edoxaban pharmacokinetics. Particulars: human, in vivo, 60 mg.

Consider `C[C@H]1O[C@@H](O[C@H]2[C@@H](O)C[C@H](O[C@H]3[C@@H](O)C[C@H](O[C@H]4CC[C@@]5(C)[C@H](CC[C@@H]6[C@@H]5C[C@@H](O)[C@]5(C)[C@@H](C7=CC(=O)OC7)CC[C@]65O)C4)O[C@@H]3C)O[C@@H]2C)C[C@H](O)[C@@H]1O` [Digoxin, digoxin], for which, in data set [1], the “Dizziness (TEAE)” value is given as 0 n (%), the “Headache (TEAE)” value is recorded as 2 (8.3 %) n (%), the “Nausea (TEAE)” value is recorded as 1 (4.2 %) n (%) and the “Subjects reporting ≥1 TEAE” value is 8 (33.3 %) n (%). In addition, in data set [1], the “Subjects reporting ≥1 treatment-related TEAE” value is 1 (4.2 %) n (%) and the “Fecal occult bleeding (TEAE)” value was 3 (12.5 %) n (%). Also, the “Effect of coadministration on edoxaban exposure/PK (in words)” value in data set [2] (digoxin study) is recorded as “minimal effects; also recorded: relatively minor effects; also recorded: did not significantly affect exposure”.
As for `CN1CCc2nc(C(=O)N[C@@H]3C[C@@H](C(=O)N(C)C)CC[C@@H]3NC(=O)C(=O)Nc3ccc(Cl)cn3)sc2C1` [Edoxaban, edoxaban], in data set [3], the “Systemically absorbed drug eliminated via renal excretion” value is “approximately 50%”. Further, in data set [3] (healthy volunteers), the “Mean terminal elimination half-life (t½)” value was 8.75 to 10.4 h and the “Time of peak concentrations postdose” value was 1 to 2 h. For the same compound, in [4], the “Contact dermatitis (TEAE)” value is given as 0 n (%), the “Diarrhea (TEAE)” value is given as 1 (3.3 %) n (%), the “Fecal occult bleeding (bleeding-related TEAE)” value was 0 n (%) and the “Gingival bleeding (bleeding-related TEAE)” value is recorded as 0 n (%). In [4], the “Menorrhagia (bleeding-related TEAE)” value was 0 n (%), the “Pain in extremity (TEAE)” value is given as 1 (3.3 %) n (%) and the “Subjects reporting ≥1 TEAE” value is reported as 5 (16.7 %) n (%). The “Tolerability (in words)” value in data set [5] is “well tolerated”. Further, in [1], the “Dizziness (TEAE)” value is given as 1 (4.2 %) n (%), the “Headache (TEAE)” value is listed as 0 n (%), the “Nausea (TEAE)” value was 1 (4.2 %) n (%) and the “Subjects reporting ≥1 TEAE” value was 19 (79.2 %) n (%). Besides, in data set [1], the “Subjects reporting ≥1 treatment-related TEAE” value is recorded as 1 (4.2 %) n (%) and the “Fecal occult bleeding (TEAE)” value was 1 (4.2 %) n (%). In [6], the “Constipation (TEAE)” value is listed as 0 n (%), the “Dysmenorrhea (bleeding-related TEAE)” value was 1 (3.1%) n (%), the “Fecal occult bleeding (bleeding-related TEAE)” value is given as 2 (6.3%) n (%) and the “Nasal congestion (TEAE)” value is 0 n (%). Further, in data set [6], the “Pharyngolaryngeal pain (TEAE)” value is on record as 0 n (%), the “Subjects reporting ≥1 TEAE” value was 4 (13.3%) n (%) and the “Subjects reporting ≥1 treatment-related TEAE” value is given as 1 (3.3%) n (%). Further, in data set [7] (human, in vivo, 60 mg), the total exposure AUC(0-inf) turned out to be 1580 ng·h/mL, the concentration peaked (Cmax) at 223 ng/mL, the Tmax amounted to 1.48 h and the concentration at 24 h turned out to be 11 ng/mL. The half-life in data set [7] (human, in vivo, 60 mg) is 6.43 h. The AUC(0-t) in [7] (human, in vivo, 60 mg, Edoxaban AUC0–24, quinidine study, mean (SD)) stood at 1450 ng·h/mL. Moreover, in data set [7] (human, in vivo, 60 mg, Edoxaban AUClast, quinidine study, mean (SD)), the area under the curve AUC(0-t) was 1440 ng·h/mL. The “Edoxaban AUC0–24” value in [7] (quinidine study, mean (SD)) was 1449.2 (328.6) ng·h/mL. In data set [8], the AUC(0-t) was 1440 ng·h/mL, the Cmax came out at 226 ng/mL, the Tmax is 1.48 h and the concentration at 24 h worked out at 11 ng/mL. Moreover, in [8], the half-life was 7.43 h. Moreover, in data set [9], the “Bleeding-related TEAEs” value is given as 0 n (%), the “Headache (TEAE)” value is given as 0 n (%), the “Subjects reporting ≥1 TEAE” value was 0 n (%) and the “Subjects reporting ≥1 treatment-related TEAE” value is 0 n (%). In data set [10], the “Constipation (TEAE)” value is recorded as 1 (3.0 %) n (%), the “Epistaxis (bleeding-related TEAE)” value is given as 0 n (%), the “Fecal occult bleeding (bleeding-related TEAE)” value is on record as 1 (3.0 %) n (%) and the “Headache (TEAE)” value is 0 n (%). In data set [10], the “Menorrhagia (bleeding-related TEAE)” value is listed as 0 n (%), the “Occular hyperemia (TEAE)” value was 0 n (%), the “Subjects reporting ≥1 TEAE” value is reported as 4 (12.1 %) n (%) and the “Subjects reporting ≥1 treatment-related TEAE” value is listed as 1 (3.0 %) n (%). In addition, the “Time of peak edoxaban concentrations postdose” value in [11] (across the studies) lay in the range of 1 to 3 h. In [11] (human, in vivo, 60 mg), the area under the curve AUC(0-inf) is 1580 to 1970 ng·h/mL and the Cmax lay in the range of 223 to 296 ng/mL. The half-life in data set [12] (human, in vivo, 60 mg) was 10.2 h. Besides, in data set [13], the AUC(0-inf) turned out to be 1970 ng·h/mL, the Cmax was found to be 282 ng/mL, the time of peak concentration (Tmax) was 1.02 h and the concentration at 24 h turned out to be 12.6 ng/mL. In data set [13], this compound gave a half-life of 12 h. Moreover, in data set [14], the “Blood creatinine increased (TEAE)” value is recorded as 0 n (%), the “Chest pain (TEAE)” value is reported as 1 (2.7 %) n (%), the “Epistaxis (bleeding-related TEAE)” value is 0 n (%) and the “Headache (TEAE)” value was 0 n (%). Besides, in [14], the “Hematochezia (bleeding-related TEAE)” value is 1 (2.7 %) n (%), the “Irregular menstruation (bleeding-related TEAE)” value was 1 (2.7 %) n (%), the “Menorrhagia (bleeding-related TEAE)” value is 1 (2.7 %) n (%) and the “Nausea (TEAE)” value is 0 n (%). Besides, in data set [14], the “Subjects reporting ≥1 TEAE” value is listed as 5 (13.5 %) n (%) and the “Subjects reporting ≥1 treatment-related TEAE” value was 3 (8.1 %) n (%). In addition, the “Fecal occult bleeding (TEAE)” value in data set [14] (printed under most frequent and under bleeding-related TEAEs) is 2 (5.4 %) n (%). Moreover, in data set [2] (human, in vivo, 60 mg), the AUC was determined as 1960 ng·h/mL, the concentration at 24 h amounted to 24.5 ng/mL and the half-life was 9.83 h. In addition, in data set [15], the AUC(0-inf) was 1740 ng·h/mL, the exposure AUC(0-t) was 1720 ng·h/mL, the highest level (Cmax) was 251 ng/mL and the half-life is 12.2 h.
As to `CCCCc1oc2ccc(NS(C)(=O)=O)cc2c1C(=O)c1ccc(OCCCN(CCCC)CCCC)cc1` [Dronedarone, dronedarone], in [9], the “Bleeding-related TEAEs” value is given as 0 n (%), the “Headache (TEAE)” value is 0 n (%), the “Subjects reporting ≥1 TEAE” value is given as 4 (11.8 %) n (%) and the “Subjects reporting ≥1 treatment-related TEAE” value is recorded as 1 (2.9 %) n (%). The “Effect of coadministration on edoxaban exposure (in words)” value in [12] (dronedarone study) was “increased edoxaban exposure; also recorded: significantly increased exposure”.
As to `CC(C)c1c(C(=O)Nc2ccccc2)c(-c2ccccc2)c(-c2ccc(F)cc2)n1CC[C@@H](O)C[C@@H](O)CC(=O)O` [Atorvastatin, atorvastatin], in [6], the “Constipation (TEAE)” value is listed as 2 (6.3%) n (%), the “Dysmenorrhea (bleeding-related TEAE)” value is listed as 0 n (%), the “Fecal occult bleeding (bleeding-related TEAE)” value is 0 n (%) and the “Nasal congestion (TEAE)” value is 1 (3.1%) n (%). For the same compound, in data set [6], the “Pharyngolaryngeal pain (TEAE)” value is 1 (3.1%) n (%), the “Subjects reporting ≥1 TEAE” value is on record as 6 (18.8%) n (%) and the “Subjects reporting ≥1 treatment-related TEAE” value is 3 (9.4%) n (%).
